Experimental data from ChEMBL document CHEMBL1201862, “PubChem BioAssay data set” (2004).
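Cultured in 96-well plates, cells were exposed to test compound for 48 hours across five concentrations. GI50 is the concentration that inhibits growth by half.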 Calls of active or inactive are those of the source. No stated cut-off is given here; in the data, active = GI50 up to about 1.1 µM and inactive = higher.

Assays:
Assay in all cases: NCI-60 cell line screen, 48 h
786-0 = tested on: 786-0
BT-549 = tested on: BT-549
CAKI-1 = tested on: CAKI-1
COLO 205 = tested on: COLO 205
EKVX = tested on: EKVX
HL-60 = tested on: HL-60
KM12 = tested on: KM12
M14 = tested on: M14
MCF7 = tested on: MCF7
MDA-N = tested on: MDA-N
MOLT-4 = tested on: MOLT-4
OVCAR-3 = tested on: OVCAR-3
OVCAR-5 = tested on: OVCAR-5
OVCAR-8 = tested on: OVCAR-8
SF-295 = tested on: SF-295
SK-MEL-2 = tested on: SK-MEL-2
SNB-19 = tested on: SNB-19
SW-620 = tested on: SW-620
A498 = tested on: A498

O=C1c2ccccc2-c2nc3ccc(O)cc3n21
GI50 (786-0): > 100 µM (inactive)
GI50 (BT-549): > 100 µM (inactive)
GI50 (CAKI-1): > 100 µM (inactive)
GI50 (COLO 205): > 100 µM (inactive)
GI50 (EKVX): > 100 µM (inactive)
GI50 (HL-60): > 100 µM (inactive)
GI50 (KM12): > 100 µM (inactive)
GI50 (M14): > 100 µM (inactive)
GI50 (MCF7): > 100 µM (inactive)
GI50 (MDA-N): > 100 µM (inactive)
GI50 (MOLT-4): > 100 µM (inactive)
GI50 (OVCAR-3): > 100 µM (inactive)
GI50 (OVCAR-5): > 100 µM (inactive)
GI50 (OVCAR-8): > 100 µM (inactive)
GI50 (SF-295): > 100 µM (inactive)
GI50 (SK-MEL-2): > 100 µM (inactive)
GI50 (SNB-19): > 100 µM (inactive)
GI50 (SW-620): > 100 µM (inactive)

CCC/C=C/c1cc2c(cc1O)CC[C@@H]1[C@@H]2CC[C@]2(C)[C@@H](O)CC[C@@H]12
GI50 (786-0): 15.2 µM (inactive)
GI50 (A498): 17.2 µM (inactive)
GI50 (BT-549): 18.8 µM (inactive)
GI50 (CAKI-1): 21.2 µM (inactive)
GI50 (COLO 205): 19.1 µM (inactive)
GI50 (EKVX): 19.2 µM (inactive)
GI50 (KM12): 17.3 µM (inactive)
GI50 (M14): 20.3 µM (inactive)
GI50 (MCF7): 25.5 µM (inactive)
GI50 (MDA-N): 15.1 µM (inactive)
GI50 (MOLT-4): 18.3 µM (inactive)
GI50 (OVCAR-3): 19.2 µM (inactive)
GI50 (OVCAR-5): 18.4 µM (inactive)
GI50 (OVCAR-8): 22.9 µM (inactive)
GI50 (SF-295): 17.6 µM (inactive)
GI50 (SK-MEL-2): 16.6 µM (inactive)
GI50 (SNB-19): 23.6 µM (inactive)
GI50 (SW-620): 20.6 µM (inactive)

NCCC1CN(C(=O)OCc2ccccc2)c2ccccc21 (stereo not given)
GI50 (786-0): 16.1 µM (inactive)
GI50 (A498): > 37.2 µM (inactive)
GI50 (BT-549): 16.8 µM (inactive)
GI50 (CAKI-1): 21.4 µM (inactive)
GI50 (COLO 205): 16.3 µM (inactive)
GI50 (EKVX): 20.2 µM (inactive)
GI50 (KM12): 17.8 µM (inactive)
GI50 (M14): 13.8 µM (inactive)
GI50 (MCF7): 1.01 µM (active)
GI50 (MDA-N): 13.5 µM (inactive)
GI50 (MOLT-4): 12 µM (inactive)
GI50 (OVCAR-3): 16.7 µM (inactive)
GI50 (OVCAR-5): 17.1 µM (inactive)
GI50 (OVCAR-8): 8.17 µM (inactive)
GI50 (SF-295): 18.3 µM (inactive)
GI50 (SK-MEL-2): 18 µM (inactive)
GI50 (SNB-19): 19.5 µM (inactive)
GI50 (SW-620): 6.67 µM (inactive)

ON[C@H]1C[C@@H](n2cnc3c(NC4CC4)ncnc32)[C@H](O)[C@@H]1O
GI50 (786-0): > 100 µM (inactive)
GI50 (A498): > 100 µM (inactive)
GI50 (BT-549): > 100 µM (inactive)
GI50 (CAKI-1): > 100 µM (inactive)
GI50 (COLO 205): > 100 µM (inactive)
GI50 (EKVX): > 100 µM (inactive)
GI50 (KM12): > 100 µM (inactive)
GI50 (M14): > 100 µM (inactive)
GI50 (MCF7): > 100 µM (inactive)
GI50 (MDA-N): > 100 µM (inactive)
GI50 (MOLT-4): > 100 µM (inactive)
GI50 (OVCAR-3): > 100 µM (inactive)
GI50 (OVCAR-5): > 100 µM (inactive)
GI50 (OVCAR-8): > 100 µM (inactive)
GI50 (SF-295): > 100 µM (inactive)
GI50 (SK-MEL-2): > 100 µM (inactive)
GI50 (SNB-19): > 100 µM (inactive)
GI50 (SW-620): > 100 µM (inactive)

CC1(c2nc3cc(Cl)c(Cl)cc3[nH]2)CCC(CO)C(C)(C)O1 (stereo not given)
GI50 (786-0): 42 µM (inactive)
GI50 (BT-549): 17.1 µM (inactive)
GI50 (CAKI-1): 29.3 µM (inactive)
GI50 (COLO 205): 25.1 µM (inactive)
GI50 (EKVX): 23 µM (inactive)
GI50 (HL-60): 15 µM (inactive)
GI50 (KM12): 15.1 µM (inactive)
GI50 (M14): 26.2 µM (inactive)
GI50 (MCF7): 35.9 µM (inactive)
GI50 (MDA-N): 29 µM (inactive)
GI50 (MOLT-4): 24.5 µM (inactive)
GI50 (OVCAR-3): 29.5 µM (inactive)
GI50 (OVCAR-5): 82.2 µM (inactive)
GI50 (OVCAR-8): 19.5 µM (inactive)
GI50 (SF-295): 31 µM (inactive)
GI50 (SK-MEL-2): 30.3 µM (inactive)
GI50 (SNB-19): 54.1 µM (inactive)
GI50 (SW-620): 30.9 µM (inactive)

S=C(N1CCN(c2ccccc2)CC1)N1CCN(c2ccccc2)CC1
GI50 (786-0): > 100 µM (inactive)
GI50 (A498): > 100 µM (inactive)
GI50 (BT-549): > 100 µM (inactive)
GI50 (CAKI-1): > 100 µM (inactive)
GI50 (COLO 205): > 100 µM (inactive)
GI50 (EKVX): > 100 µM (inactive)
GI50 (KM12): > 100 µM (inactive)
GI50 (M14): > 100 µM (inactive)
GI50 (MCF7): > 100 µM (inactive)
GI50 (MDA-N): 89.5 µM (inactive)
GI50 (MOLT-4): 71.3 µM (inactive)
GI50 (OVCAR-3): > 100 µM (inactive)
GI50 (OVCAR-5): > 100 µM (inactive)
GI50 (OVCAR-8): > 100 µM (inactive)
GI50 (SF-295): 52.1 µM (inactive)
GI50 (SK-MEL-2): > 100 µM (inactive)
GI50 (SNB-19): > 100 µM (inactive)
GI50 (SW-620): > 100 µM (inactive)

OCC1OC(NCCNCCNC2OC(CO)C(O)C(O)C2O)C(O)C(O)C1O (stereo not given)
GI50 (786-0): > 100 µM (inactive)
GI50 (A498): > 100 µM (inactive)
GI50 (BT-549): > 100 µM (inactive)
GI50 (COLO 205): > 100 µM (inactive)
GI50 (EKVX): > 100 µM (inactive)
GI50 (HL-60): > 100 µM (inactive)
GI50 (M14): > 100 µM (inactive)
GI50 (MCF7): > 100 µM (inactive)
GI50 (MDA-N): > 100 µM (inactive)
GI50 (MOLT-4): > 100 µM (inactive)
GI50 (OVCAR-3): > 100 µM (inactive)
GI50 (OVCAR-5): > 100 µM (inactive)
GI50 (OVCAR-8): > 100 µM (inactive)
GI50 (SF-295): > 100 µM (inactive)
GI50 (SK-MEL-2): > 100 µM (inactive)
GI50 (SNB-19): > 100 µM (inactive)
GI50 (SW-620): > 100 µM (inactive)
